Laboratory results taken from PubChem BioAssay (NCI).
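Dose response: 5 concentrations. Exposure: 48 h. Format: 96-well plates. Endpoint: linear interpolation; highest concentration if not reached. The concentration for 50% growth inhibition is given as GI50. TGI: concentration producing complete growth inhibition.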

What was measured:
Assay in all cases: DTP human tumour cell line panel, 48 h
SK-MEL-28 melanoma = test system: SK-MEL-28 melanoma
NCI-H226 lung = test system: NCI-H226 lung
NCI-H460 lung = test system: NCI-H460 lung
SK-MEL-2 melanoma = test system: SK-MEL-2 melanoma
PC-3 prostate = test system: PC-3 prostate
SW-620 colon = test system: SW-620 colon
DU-145 prostate = test system: DU-145 prostate
UACC-257 melanoma = test system: UACC-257 melanoma
HCT-116 colon = test system: HCT-116 colon
ACHN renal = test system: ACHN renal

Row | Structure (SMILES) | TGI (SK-MEL-28 melanoma) | TGI (NCI-H226 lung) | TGI (NCI-H460 lung) | TGI (SK-MEL-2 melanoma) | TGI (PC-3 prostate) | TGI (SW-620 colon) | TGI (DU-145 prostate) | TGI (UACC-257 melanoma) | TGI (HCT-116 colon) | TGI (ACHN renal) | GI50 (SK-MEL-28 melanoma) | GI50 (NCI-H226 lung) | GI50 (NCI-H460 lung) | GI50 (SK-MEL-2 melanoma) | GI50 (PC-3 prostate) | GI50 (SW-620 colon) | GI50 (DU-145 prostate) | GI50 (UACC-257 melanoma) | GI50 (HCT-116 colon) | GI50 (ACHN renal)
1 | O=C(N/N=C\c1cccc2ccccc12)Nc1cccc2ccccc12 | > 100 µM | > 100 µM | > 100 µM | > 100 µM | > 100 µM | > 100 µM | > 100 µM | > 100 µM | 72 µM | > 100 µM |  |  |  |  |  |  |  |  |  | 
2 | COC(=O)C1CCC(=O)N1C(c1cc(OC)c(OC)c(OC)c1)c1cccc2ccccc12 (stereo not given) | > 100 µM | > 100 µM | > 100 µM | > 100 µM | > 100 µM | > 100 µM | > 100 µM | > 100 µM | > 100 µM | > 100 µM |  |  |  |  |  |  |  |  |  | 
3 | Cc1cc(Nc2ccc(NS(C)(=O)=O)cc2)c2c(ccc3nccc32)[nH]1 | 33.4 µM | 41.9 µM | 46.5 µM | 30.5 µM | 39.7 µM | > 100 µM | 40.1 µM | 34.7 µM | 37.9 µM | 60.8 µM |  |  |  |  |  |  |  |  |  | 
4 | CCOC(=O)C(=CNC(=S)N=Nc1c(O)[nH]c2ccccc12)C(=O)OCC | > 100 µM | > 100 µM | > 100 µM | > 100 µM | > 100 µM | > 100 µM | > 100 µM | > 100 µM | > 100 µM | > 100 µM |  |  |  |  |  |  |  |  |  | 
5 | CN(C)CCOc1ccc(-c2c(Oc3ccccc3)c(=O)oc3ccccc23)cc1 | 25.5 µM | 31.6 µM | 29 µM | 28.9 µM | 23.1 µM | 23.8 µM | 29.3 µM | 19.5 µM | 15.5 µM | 24.4 µM |  |  |  |  |  |  |  |  |  | 
6 | CCCCc1ccc(Nc2nc(Cl)c3ccn(C4CC(Oc5ccc(C)cc5)C(COc5ccc(C)cc5)O4)c3n2)cc1 (stereo not given) | > 100 µM | > 46.4 µM | > 31.6 µM | > 46.4 µM | > 100 µM | > 46.4 µM | > 46.4 µM | 31.5 µM | > 46.4 µM | 31.4 µM |  |  |  |  |  |  |  |  |  | 
7 | CCOC(=O)/C=C(\C(=O)OCC)n1cc(Cl)c(=O)n(CC(=O)OCC)c1=O | 36.5 µM | 31.7 µM | 51.1 µM | 32 µM | 27.8 µM | 4.54 µM | 31.1 µM | 10.2 µM | 4.94 µM | 3.02 µM |  |  |  |  |  |  |  |  |  | 
8 | CC(=O)O[C@H]1C(=O)[C@@]2(C)[C@H]([C@H](OC(=O)c3ccccc3)[C@]3(O)C[C@H](OC(=O)[C@H](O)[C@@H](NC(=O)c4ccccc4)c4cccc(N(C)C)c4)C(C)=C1C3(C)C)[C@]1(OC(C)=O)CO[C@@H]1C[C@@H]2O | > 75 µM | 29 µM | 27.5 µM | > 75 µM | 12.4 µM | > 75 µM | 1.58 µM | > 75 µM | > 61.4 µM | > 16.4 µM |  |  |  |  |  |  |  |  |  | 
9 | Cc1cc(OCCOCCC(F)(F)P(=O)(O)O)ccc1CCc1cnc2c(N)nc3cc(CCC(=O)O)ccc3c2c1 | > 100 µM | > 100 µM | > 100 µM | > 100 µM | > 100 µM | > 100 µM | > 100 µM | > 100 µM | > 100 µM | > 100 µM | > 100 µM | > 100 µM | > 100 µM | > 100 µM | > 100 µM | > 100 µM | > 100 µM | > 100 µM | > 100 µM | > 100 µM
10 | O=C(c1cccnc1)N1N=C(c2ccccc2)CC1(O)c1cc(F)c(Cl)cc1Cl (stereo not given) | 65.5 µM | 36.3 µM | 44.7 µM | 45.8 µM | 72.2 µM | > 100 µM | > 100 µM | 39.7 µM | 30.6 µM | 58.5 µM |  |  |  |  |  |  |  |  |  | 
11 | CCC(CC)(CO)CNc1cc(Cl)nc(N)n1 | > 100 µM | > 100 µM | > 100 µM | > 100 µM | > 100 µM | > 100 µM | > 100 µM | > 100 µM | > 100 µM | > 100 µM |  |  |  |  |  |  |  |  |  | 
12 | C=CC(=O)N1C/C(=C\c2ccc([N+](=O)[O-])cc2)C(=O)/C(=C/c2ccc([N+](=O)[O-])cc2)C1 | 1.74 µM | 1.05 µM | 1.21 µM | 1.8 µM | 0.361 µM | 1.96 µM | 2.36 µM | 3.25 µM | 0.115 µM | 0.33 µM |  |  |  |  |  |  |  |  |  | 
13 | Cc1c(Cl)cccc1N=NC(=O)NNc1cccc(Cl)c1C | 30.1 µM | 32.6 µM | 31.2 µM | 26.4 µM | 26.1 µM | 30.8 µM | 28.3 µM | 42.1 µM | 28.6 µM | 45.3 µM |  |  |  |  |  |  |  |  |  | 
14 | O=C(O)/C(=C\c1ccc(O)cc1)c1cccc2ccccc12 | > 100 µM | > 100 µM | > 100 µM | > 100 µM | > 100 µM | > 100 µM | > 100 µM | > 100 µM | > 100 µM | > 100 µM |  |  |  |  |  |  |  |  |  | 
15 | CCSc1nc(=S)n(-c2ccccc2)c(C)c1C(C)=O | > 100 µM | > 100 µM | > 100 µM | > 100 µM | > 100 µM | > 100 µM | > 100 µM | > 100 µM | > 100 µM | > 100 µM |  |  |  |  |  |  |  |  |  | 
16 | O=C(O)c1c2c(cc3c1CC1(Cc4cc5c(cc4C1=O)CCC5)C3)CCC2 (stereo not given) | 82.5 µM | > 100 µM | > 100 µM | > 100 µM | > 100 µM | > 100 µM | > 100 µM | > 100 µM | > 100 µM | > 100 µM |  |  |  |  |  |  |  |  |  | 
